Experimental data taken from patent publication US20150105252A1, “SUBSTITUTED PYRAZOLES AS HERBICIDES” (E I DU PONT DE NEMOURS AND COMPANY, priority 2013, published 2015).

Experiments:
foxtail, giant [1] = assay: Test A postemergence; format: in vivo, Setaria faberii
In short: (§1)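 Scoring was visual, on a scale where 100 means complete control and 0 means no effect, comparing treated with untreated plants around 10 days post-application. Compounds in surfactant-containing non-phytotoxic solvent were sprayed onto soil preemergence or onto one- to two-leaf seedlings (2–10 cm) postemergence.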

velvetleaf [2] = assay: Test A postemergence; format: in vivo, Abutilon theophrasti
In short: as §1

wheat [3] = assay: Test A postemergence; format: in vivo, Triticum aestivum
In short: as §1

corn [4] = assay: Test A postemergence; format: in vivo, Zea mays
In short: as §1

galium [5] = assay: Test C preemergence; format: in vivo, Galium aparine
In short: (§2)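 Greenhouse pot test: preemergence application onto freshly seeded loam/sand mix, postemergence application onto seedlings (1–4 leaves, 2–18 cm) in peat-vermiculite substrate. Responses scored visually 13 to 15 days later relative to controls, where 0 means no effect and 100 means complete control; a dash indicates no result.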

corn [6] = assay: Test C preemergence; format: in vivo, Zea mays
In short: as §2

foxtail, giant [7] = assay: Test C preemergence; format: in vivo, Setaria faberii
In short: as §2

soybean = assay: Test C preemergence; format: in vivo, Glycine max
In short: as §2

waterhemp = assay: Test C preemergence; format: in vivo, Amaranthus rudis
In short: as §2

wheat [8] = assay: Test C postemergence; format: in vivo, Triticum aestivum; settings: for Plant response rating (scale of 0 to 100 where 0 is no effect and 100 is complete control), Wheat: 31 g ai/ha, visually evaluated after 13 to 15 days; for Wheat plant response rating / Plant response rating, Wheat: postemergence; for Wheat plant response rating: 62 g ai/ha, scale 0 to 100
In short: as §2

galium [9] = assay: Test C postemergence; format: in vivo, Galium aparine; settings: for Plant response rating (scale of 0 to 100 where 0 is no effect and 100 is complete control), Galium: 31 g ai/ha, visually evaluated after 13 to 15 days; for Galium plant response rating / Plant response rating, Galium: postemergence; for Galium plant response rating: 62 g ai/ha, scale 0 to 100
In short: as §2

foxtail, giant [10] = assay: Test C postemergence; format: in vivo, Setaria faberii; settings: for Plant response rating (scale of 0 to 100 where 0 is no effect and 100 is complete control), Foxtail, Giant: 31 g ai/ha, visually evaluated after 13 to 15 days; for Foxtail, Giant plant response rating / Plant response rating, Foxtail, Giant: postemergence; for Foxtail, Giant plant response rating: 62 g ai/ha, scale 0 to 100
In short: as §2

morningglory = assay: Test C postemergence; format: in vivo, Ipomoea coccinea; settings: for Morningglory plant response rating / Plant response rating, Morningglory: postemergence; for Morningglory plant response rating: 62 g ai/ha, scale 0 to 100
In short: as §2

barnyardgrass = assay: Test C postemergence; format: in vivo, Echinochloa crus-galli; settings: for Plant response rating (scale of 0 to 100 where 0 is no effect and 100 is complete control), Barnyardgrass: 31 g ai/ha, visually evaluated after 13 to 15 days; for Barnyardgrass plant response rating / Plant response rating, Barnyardgrass: postemergence; for Barnyardgrass plant response rating: 62 g ai/ha, scale 0 to 100
In short: as §2

kochia = assay: Test C postemergence; format: in vivo, Kochia scoparia; settings: for Plant response rating (scale of 0 to 100 where 0 is no effect and 100 is complete control), Kochia: 31 g ai/ha, visually evaluated after 13 to 15 days; for Kochia plant response rating / Plant response rating, Kochia: postemergence; for Kochia plant response rating: 62 g ai/ha, scale 0 to 100
In short: as §2

velvetleaf [11] = assay: Test C postemergence; format: in vivo, Abutilon theophrasti; settings: for Plant response rating (scale of 0 to 100 where 0 is no effect and 100 is complete control), Velvetleaf: 31 g ai/ha, visually evaluated after 13 to 15 days; for Velvetleaf plant response rating / Plant response rating, Velvetleaf: postemergence; for Velvetleaf plant response rating: 62 g ai/ha, scale 0 to 100
In short: as §2

[12] = Postemergence, 500 g ai/ha, visual rating after approx. 10 days, 0 to 100 scale (0 no effect, 100 complete control)
[13] = postemergence, 125 g ai/ha, about 10 days, visual rating on 0 to 100 scale (0 no effect, 100 complete control)
[14] = preemergence, 31 g ai/ha, scale 0 to 100 (0 no effect, 100 complete control), 13 to 15 days
[15] = preemergence, 62 g ai/ha, 13 to 15 days, scale 0 to 100, 0 = no effect, 100 = complete control
[16] = preemergence, 125 g ai/ha, scale 0 to 100, 0 is no effect, 100 is complete control
[17] = 250 g ai/ha, scale 0 to 100 (0 no effect, 100 complete control)
[18] = 125 g ai/ha, scale 0 to 100, 0 no effect, 100 complete control
[19] = Preemergence, 16 g ai/ha, scale 0 to 100

CCc1cc(C(=O)NC2CC2)nn1Cc1ccnc(C(F)(F)F)c1 [Compound 76]
40: Corn plant response rating (corn [6]; [14]) | Velvetleaf plant response rating (velvetleaf [11])
70: Plant response rating (scale of 0 to 100 where 0 is no effect and 100 is complete control), Galium (galium [9]; Postemergence)
100: Foxtail, Giant plant response rating (foxtail, giant [1]; [12]) | Plant response rating (scale of 0 to 100), Galium (galium [5]; Preemergence, 250 g ai/ha) | Plant response rating, Galium (galium [5]; [15]) | Galium plant response rating (galium [5]; [16]) | Plant response rating (scale of 0 to 100), Corn (corn [6]; Preemergence, 250 g ai/ha) | Corn plant response rating (corn [6]; [16]) | Plant response rating (scale of 0 to 100), Foxtail, Giant (foxtail, giant [7]; Preemergence, 250 g ai/ha) | Foxtail, Giant plant response rating (foxtail, giant [7]; [14]) | Plant response rating, Foxtail, Giant (foxtail, giant [7]; [15]) | Foxtail, Giant plant response rating (foxtail, giant [7]; [16]) | Plant response rating (scale of 0 to 100), Soybean (soybean; Preemergence, 250 g ai/ha) | Plant response rating (scale of 0 to 100), Waterhemp (waterhemp; Preemergence, 250 g ai/ha) | Plant response rating, Waterhemp (waterhemp; [15]) | Waterhemp plant response rating (waterhemp; [16])
0: Plant response rating (scale of 0 to 100 where 0 is no effect and 100 is complete control), Wheat (wheat [8]; Postemergence)
90: Velvetleaf plant response rating (velvetleaf [2]; [12]) | Wheat plant response rating (wheat [3]; [12]) | Corn plant response rating (corn [4]; [12]) | Plant response rating, Galium (galium [9]; [17]) | Plant response rating, Galium (galium [9]; [18]) | Kochia plant response rating (kochia) | Plant response rating, Kochia (kochia; [17]) | Plant response rating, Kochia (kochia; [18])
85: Plant response rating, Foxtail, Giant (foxtail, giant [10]; [17]) | Plant response rating, Morningglory (morningglory; [18])
20: Plant response rating (scale of 0 to 100 where 0 is no effect and 100 is complete control), Foxtail, Giant (foxtail, giant [10]; Postemergence) | Foxtail, Giant plant response rating (foxtail, giant [10])
30: Velvetleaf plant response rating (velvetleaf [2]; [13])
75: Galium plant response rating (galium [9]) | Plant response rating (scale of 0 to 100 where 0 is no effect and 100 is complete control), Morningglory (morningglory; Postemergence, 31 g ai/ha, visually evaluated after 13 to 15 days) | Morningglory plant response rating (morningglory) | Plant response rating (scale of 0 to 100 where 0 is no effect and 100 is complete control), Kochia (kochia; Postemergence)
80: Foxtail, Giant plant response rating (foxtail, giant [1]; [13]) | Wheat plant response rating (wheat [3]; [13]) | Corn plant response rating (corn [4]; [13]) | Plant response rating, Corn (corn [6]; [15]) | Soybean plant response rating (soybean; [14]) | Plant response rating, Velvetleaf (velvetleaf [11]; [17])
15: Plant response rating, Barnyardgrass (barnyardgrass; [18]) | Plant response rating (scale of 0 to 100 where 0 is no effect and 100 is complete control), Velvetleaf (velvetleaf [11]; Postemergence)
60: Plant response rating, Barnyardgrass (barnyardgrass; [17]) | Plant response rating, Velvetleaf (velvetleaf [11]; [18])
98: Galium plant response rating (galium [5]; [14]) | Plant response rating, Soybean (soybean; [15]) | Soybean plant response rating (soybean; [16]) | Waterhemp plant response rating (waterhemp; [14]) | Plant response rating, Morningglory (morningglory; [17])
65: Plant response rating, Foxtail, Giant (foxtail, giant [10]; [18])
5: Wheat plant response rating (wheat [8]) | Plant response rating, Wheat (wheat [8]; [17]) | Plant response rating, Wheat (wheat [8]; [18]) | Plant response rating (scale of 0 to 100 where 0 is no effect and 100 is complete control), Barnyardgrass (barnyardgrass; Postemergence) | Barnyardgrass plant response rating (barnyardgrass)

CCONC(=O)c1cc(CC)n(Cc2ccnc(C(F)(F)F)c2)n1 [Compound 77]
50: Wheat plant response rating (wheat [3]; [12]) | Soybean plant response rating (soybean; [16])
55: Corn plant response rating (corn [6]; [16])
85: Plant response rating, Foxtail, Giant (foxtail, giant [7]; [15])
40: Wheat plant response rating (wheat [3]; [13]) | Corn plant response rating (corn [4]; [12]) | Plant response rating, Morningglory (morningglory; [18]) | Plant response rating (scale of 0 to 100), Kochia (kochia; Postemergence, 16 g ai/ha) | Plant response rating (scale of 0 to 100 where 0 is no effect and 100 is complete control), Kochia (kochia; Postemergence)
90: Foxtail, Giant plant response rating (foxtail, giant [1]; [13])
70: Plant response rating, Waterhemp (waterhemp; [19]) | Plant response rating, Kochia (kochia; [18])
10: Galium plant response rating (galium [5]; [16]) | Soybean plant response rating (soybean; [14]) | Foxtail, Giant plant response rating (foxtail, giant [10]) | Plant response rating (scale of 0 to 100), Morningglory (morningglory; Postemergence, 16 g ai/ha) | Plant response rating (scale of 0 to 100), Velvetleaf (velvetleaf [11]; Postemergence, 16 g ai/ha)
20: Plant response rating, Foxtail, Giant (foxtail, giant [7]; [19]) | Plant response rating, Soybean (soybean; [15]) | Plant response rating, Galium (galium [9]; [18]) | Plant response rating, Foxtail, Giant (foxtail, giant [10]; [18]) | Morningglory plant response rating (morningglory) | Plant response rating, Barnyardgrass (barnyardgrass; [18]) | Plant response rating, Velvetleaf (velvetleaf [11]; [18])
30: Corn plant response rating (corn [4]; [13])
0: Plant response rating, Galium (galium [5]; [19]) | Galium plant response rating (galium [5]; [14]) | Plant response rating, Corn (corn [6]; [19]) | Corn plant response rating (corn [6]; [14]) | Plant response rating, Soybean (soybean; [19]) | Plant response rating (scale of 0 to 100), Wheat (wheat [8]; Postemergence, 16 g ai/ha) | Plant response rating (scale of 0 to 100 where 0 is no effect and 100 is complete control), Wheat (wheat [8]; Postemergence) | Plant response rating (scale of 0 to 100), Barnyardgrass (barnyardgrass; Postemergence, 16 g ai/ha) | Plant response rating (scale of 0 to 100 where 0 is no effect and 100 is complete control), Barnyardgrass (barnyardgrass; Postemergence)
80: Velvetleaf plant response rating (velvetleaf [2]; [13]) | Foxtail, Giant plant response rating (foxtail, giant [7]; [14])
98: Waterhemp plant response rating (waterhemp; [14]) | Plant response rating, Waterhemp (waterhemp; [15])
15: Plant response rating, Corn (corn [6]; [15]) | Galium plant response rating (galium [9]) | Plant response rating (scale of 0 to 100 where 0 is no effect and 100 is complete control), Velvetleaf (velvetleaf [11]; Postemergence) | Velvetleaf plant response rating (velvetleaf [11])
100: Foxtail, Giant plant response rating (foxtail, giant [1]; [12]) | Velvetleaf plant response rating (velvetleaf [2]; [12]) | Foxtail, Giant plant response rating (foxtail, giant [7]; [16]) | Waterhemp plant response rating (waterhemp; [16])
45: Kochia plant response rating (kochia)
5: Plant response rating, Galium (galium [5]; [15]) | Wheat plant response rating (wheat [8]) | Plant response rating, Wheat (wheat [8]; [18]) | Plant response rating (scale of 0 to 100), Galium (galium [9]; Postemergence, 16 g ai/ha) | Plant response rating (scale of 0 to 100 where 0 is no effect and 100 is complete control), Galium (galium [9]; Postemergence) | Plant response rating (scale of 0 to 100), Foxtail, Giant (foxtail, giant [10]; Postemergence, 16 g ai/ha) | Plant response rating (scale of 0 to 100 where 0 is no effect and 100 is complete control), Foxtail, Giant (foxtail, giant [10]; Postemergence) | Barnyardgrass plant response rating (barnyardgrass)
